# Experiments:
# mHTT protein = mHTT protein assay (2B7-MW1, Mesoscale Discovery); type: cell-based, human; settings: GM04724 (CAG 70/20) Huntington's disease patient lymphoblast cells, 48 hours, 2B7-MW1 MSD; read-out: HTT Potency - Protein EC50 mHTT (average)
# Protocol: Compounds are tested on GM04724 (CAG 70/20) Huntington's disease patient lymphoblast cells at doses ranging from 10 μM to 0.6 nM. 4,500 cells/well are seeded in 384 well plates. One plate replica is carried out for parallel viability testing by CellTiter Glo (CTG). Compounds are incubated for 48 hours, mHTT protein levels are assessed by the 2B7-MW1 assay via Mesoscale Discovery (MSD) as previously reported (Macdonald et al., 2014). The antibody pair is comprised of previously characterized monoclonals (2B7 and MW1) interrogating two regions for HTT conformation and biological properties: the N17 domain and the polyQ domain (Baldo et al., 2012; Ko et., 2001). 2B7-MW1 is dependent on subject/animal specific levels of HTT at the time of treatment. 2B7-MW1 is dependent on polyQ expansion (e.g., the higher the expansion the higher the signal) and on mHTT size (e.g., a similar polyQ will give higher signal with smaller HTT size). The viability readout is carried out by CTG according to the manufacturer's instructions.
# [1] = system: MDR1-MDCK cell monolayers; test: MDCK-MDR1 permeability assay (BBB penetration potential); type: in vitro ADME; settings: dog, MDCK-MDR1, 120 min, 5 μM, pH 7.4
# Protocol: (§1) Each determination is performed in duplicate. […] Analytical conditions are outlined below.
# MDR1 = test: as above; type: in vitro ADME; settings: dog; for efflux ratio at 120 min, 5 μM: MDCK-MDR1, pH 7.4, MDCK-MDR1: Efflux; for Papp A→B at 120 min, 5 μM: MDCK-MDR1, pH 7.4, MDCK-MDR1: Papp A-B; for Papp B→A at 120 min, 5 μM: MDCK-MDR1, pH 7.4, MDCK-MDR1: Papp B-A
# Protocol: as §1
Compound,EC50 (mHTT protein) [nM],MDCK-MDR1: % Recov A-B [1] [%],MDCK-MDR1: % Recov B-A [1] [%],"efflux ratio at 120 min, 5 μM (MDR1)","Papp A→B at 120 min, 5 μM (MDR1) [×10⁻⁶ cm/s]","Papp B→A at 120 min, 5 μM (MDR1) [×10⁻⁶ cm/s]"
"Cc1cncc(-c2ccc(-c3ccc(O[C@@H]4C[C@H]5CCC[C@H](N5)[C@@H]4F)nn3)c(O)c2)c1 (single isomer, unassigned) [89-ENT1]",501 to 10000,68,76,6,6.05,33.8
"Cc1cncc(-c2ccc(-c3ccc(O[C@H]4C[C@@H]5CCC[C@@H](N5)[C@H]4F)nn3)c(O)c2)c1 (single isomer, unassigned) [89-ENT2]",501 to 10000,55,70,13,2.61,34
"Cc1cc(-c2ccc(-c3ccc(O[C@@H]4C[C@H]5CCC[C@H](N5)[C@@H]4F)nn3)c(O)c2)cnn1 (single isomer, unassigned) [90-ENT1]",101 to 500,103,99,33,1.82,60.5
"Cc1cc(-c2ccc(-c3ccc(O[C@H]4C[C@@H]5CCC[C@@H](N5)[C@H]4F)nn3)c(O)c2)cnn1 (single isomer, unassigned) [90-ENT2]",101 to 500,101,97,34,1.92,64.6
"Oc1cc(-c2cnn3ccccc23)ccc1-c1ccc(O[C@@H]2C[C@H]3CCC[C@H](N3)[C@@H]2F)nn1 (single isomer, unassigned) [91-ENT1]",101 to 500,30,57,3,4.52,15.5
"Oc1cc(-c2cnn3ccccc23)ccc1-c1ccc(O[C@H]2C[C@@H]3CCC[C@@H](N3)[C@H]2F)nn1 (single isomer, unassigned) [91-ENT2]",501 to 10000,30,48,2,4.4,10.5
"Cc1nc(-c2ccc(-c3ccc(O[C@@H]4C[C@H]5CCC[C@H](N5)[C@@H]4F)nn3)c(O)c2)co1 (single isomer, unassigned) [92-ENT1]",101 to 500,65,74,5,5.99,30.9
"Cc1nc(-c2ccc(-c3ccc(O[C@H]4C[C@@H]5CCC[C@@H](N5)[C@H]4F)nn3)c(O)c2)co1 (single isomer, unassigned) [92-ENT2]",101 to 500,72,89,9,6.04,54.6
"Cc1ncc(-c2ccc(-c3ccc(O[C@H]4C[C@@H]5CCC[C@@H](N5)[C@H]4F)nn3)c(O)c2)o1 (single isomer, unassigned) [93-ENT2]",16 to 50,67,88,4,9.43,41.5
"Cc1nnc(-c2ccc(-c3ccc(O[C@@H]4C[C@H]5CCC[C@H](N5)[C@@H]4F)nn3)c(O)c2)o1 (single isomer, unassigned) [94-ENT1]",101 to 500,104,70,7,6.2,41.2
"Cc1nnc(-c2ccc(-c3ccc(O[C@H]4C[C@@H]5CCC[C@@H](N5)[C@H]4F)nn3)c(O)c2)o1 (single isomer, unassigned) [94-ENT2]",101 to 500,93,87,7,6.35,46.7
"Cc1nnc(-c2ccc(-c3ccc(O[C@@H]4C[C@H]5CCC[C@H](N5)[C@@H]4F)nn3)c(O)c2)s1 (single isomer, unassigned) [95-ENT1]",101 to 500,72,78,10,4.88,48.8
"Cc1nnc(-c2ccc(-c3ccc(O[C@H]4C[C@@H]5CCC[C@@H](N5)[C@H]4F)nn3)c(O)c2)s1 (single isomer, unassigned) [95-ENT2]",101 to 500,78,87,9,3.59,33.1
"Cc1cc(-c2ccc(-c3ccc(O[C@@H]4C[C@H]5CCC[C@H](N5)[C@@H]4F)nn3)c(O)c2)co1 (single isomer, unassigned) [98-ENT1]",101 to 500,9,47,1,1.13,1.39
"Cc1cc(-c2ccc(-c3ccc(O[C@H]4C[C@@H]5CCC[C@@H](N5)[C@H]4F)nn3)c(O)c2)co1 (single isomer, unassigned) [98-ENT2]",101 to 500,9,45,3,1.07,3.23
"Cc1ccc(-c2ccc(-c3ccc(O[C@@H]4C[C@H]5CCC[C@H](N5)[C@@H]4F)nn3)c(O)c2)o1 (single isomer, unassigned) [99-ENT1]",101 to 500,9,47,1,2.07,2.37
"Cc1ccc(-c2ccc(-c3ccc(O[C@H]4C[C@@H]5CCC[C@@H](N5)[C@H]4F)nn3)c(O)c2)o1 (single isomer, unassigned) [99-ENT2]",101 to 500,16,55,1,6.11,6.02
"Cc1ccc(-c2ccc(-c3ccc(O[C@@H]4C[C@H]5CCC[C@H](N5)[C@@H]4F)nn3)c(O)c2)s1 (single isomer, unassigned) [100-ENT1]",101 to 500,16,49,1,0.99,0.68
"Cc1ccc(-c2ccc(-c3ccc(O[C@H]4C[C@@H]5CCC[C@@H](N5)[C@H]4F)nn3)c(O)c2)s1 (single isomer, unassigned) [100-ENT2]",101 to 500,18,57,1,1.14,0.68
"Cc1cc(-c2ccc(-c3ccc(O[C@@H]4C[C@H]5CCC[C@H](N5)[C@@H]4F)nn3)c(O)c2)cs1 (single isomer, unassigned) [101-ENT1]",101 to 500,25,70,1,0.86,0.76

# — patent publication US12522597B2, “Methods and compositions for modulating splicing” (Skyhawk Therapeutics, Inc., priority 2019, dated 2026)
